Experimental data taken from patent US20120015925A1, “NOVEL BENZOTHIAZEPINE AND BENZOTHIEPINE COMPOUNDS” (ASAHI KASEI PHARMA CORPORATION, priority 2004, published 2012).

Biological target: T1, human IBAT (Homo sapiens, UniProt Q12908)
T1 sequence (Q12908 1-348): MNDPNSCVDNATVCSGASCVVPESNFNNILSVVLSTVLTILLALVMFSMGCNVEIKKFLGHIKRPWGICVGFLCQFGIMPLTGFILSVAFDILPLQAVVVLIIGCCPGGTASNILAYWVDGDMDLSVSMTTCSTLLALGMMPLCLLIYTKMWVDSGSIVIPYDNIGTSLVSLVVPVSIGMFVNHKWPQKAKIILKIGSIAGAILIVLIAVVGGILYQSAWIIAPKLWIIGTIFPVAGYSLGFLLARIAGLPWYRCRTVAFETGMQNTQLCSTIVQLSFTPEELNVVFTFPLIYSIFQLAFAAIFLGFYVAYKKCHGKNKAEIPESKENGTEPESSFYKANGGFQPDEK
Test: In vitro assay using Cos 7 cells, transiently expressed human IBAT
Format: cell-based
Conditions: 37° C., 60 minutes
Procedure: In the present Test Example, an in vitro assay of compounds using Cos 7 cells as to inhibitory activity on transiently expressed human IBAT or rat IBAT transporter was performed according to the method described in Am. J. Physiol., 274, G157-169.
That is, […] cells/well of Cos 7 cells were seeded in a 24-well plate, and after one day, the cells were transfected with 0.3 μg/well of cDNA of human IBAT or rat IBAT using FuGENE6 (supplied from Roche). After culturing for one day after the transfection, the cells were washed once with the assay buffer, i.e., Hanks buffer containing 25 mM glucose and 10 mM HEPES (pH 7.4). The assay buffer was then replaced with the assay buffer containing the test compound. [^3H]-Taurocholate at a final concentration of 8 μM was added thereto and incubated at 37° C. for 60 minutes so that [^3H]-taurocholate was taken into Cos 7 cells by the action of human IBAT or rat IBAT. The cells were washed twice with the assay buffer containing 1 mM taurocholate, and subsequently lysed with 0.2 M NaOH to stop the reaction. The cell lysate was added to 4 mL of liquid scintillation cocktail, which was then thoroughly vortexed. Then the radioactivity was measured using the liquid scintillation counter.

| Structure (SMILES) | IC50 ([3H]-taurocholate 8 μM uptake) [nM] | IC50 ([3H]-taurocholate 8 μM) [nM] |
| --- | --- | --- |
| CCCCC1(CCCC)CS(=O)(=O)c2ccc(N(C)C)cc2C(c2cccc(NC(=S)Nc3ccc(C[N+]4(Cc5ccccc5)CCCCC4)cc3)c2)N1 (stereo not drawn) [EXAMPLE 3593] | 70 | – |
| CCCCC1(CCCC)CS(=O)(=O)c2ccc(N(C)C)cc2C(c2cccc(NC(=S)Nc3ccc(C[n+]4ccc(C(C)=O)cc4)cc3)c2)N1 (stereo not drawn) [EXAMPLE 3736] | 50 | – |
| CCCCCC[N+](C)(C)Cc1ccc(NC(=S)Nc2cccc(C3NC(CCCC)(CCCC)CS(=O)(=O)c4ccc(N(C)C)cc43)c2)cc1 (stereo not drawn) [EXAMPLE 3410] | 68 | – |
| CCCCC1(CCCC)CS(=O)(=O)c2ccc(N(C)C)cc2C(c2cccc(NC(=S)Nc3ccc(C[n+]4ccccc4)cc3)c2)N1 (racemic) [EXAMPLE 3708] | 70 | – |
| CCCCC1(CCCC)CS(=O)(=O)c2ccc(N(C)C)cc2C(c2cccc(NC(=S)Nc3ccc(C[n+]4ccc(-c5ccccc5)cc4)cc3)c2)N1 (stereo not drawn) [EXAMPLE 3717] | 30 | – |
| CCCCC1(CCCC)CS(=O)(=O)c2ccc(N(C)C)cc2C(c2cccc(NC(=S)NCCC[N+]3(Cc4ccccc4)CCC(CCO)CC3)c2)N1 (stereo not drawn) [EXAMPLE 593] | 92 | – |
| CCCCC1(CCCC)CS(=O)(=O)c2ccc(N(C)C)cc2C(c2cccc(NC(=S)Nc3ccc(C[n+]4ccc(CCc5ccncc5)cc4)cc3)c2)N1 (racemic) [EXAMPLE 3764] | 80 | – |
| CCCCC1(CCCC)CS(=O)(=O)c2ccc(N(C)C)cc2C(c2cccc(NC(=S)Nc3ccc(C[n+]4cccc(CC)c4)cc3)c2)N1 (racemic) [EXAMPLE 3722] | 39 | – |
| CCCCC1(CCCC)CS(=O)(=O)c2ccc(N(C)C)cc2C(c2cccc(NC(=S)Nc3ccc(C[n+]4ccc(N(C)C)cc4)cc3)c2)N1 (racemic) [EXAMPLE 4210] | 100 | – |
| CCCCC1(CCCC)CS(=O)(=O)c2ccc(N(C)C)cc2C(c2cccc(NC(=S)Nc3ccc(C[n+]4ccc(CCC)cc4)cc3)c2)N1 (stereo not drawn) [EXAMPLE 3711] | 63 | – |
| CCCCCCCC[N+](C)(C)Cc1ccc(NC(=S)Nc2cccc(C3NC(CCCC)(CCCC)CS(=O)(=O)c4ccc(N(C)C)cc43)c2)cc1 (stereo not drawn) [EXAMPLE 3412] | 75 | – |
| CCCCC1(CCCC)CS(=O)(=O)c2ccc(N(C)C)cc2C(c2cccc(NC(=S)Nc3ccc(C[n+]4cccc(-c5cccs5)c4)cc3)c2)N1 (racemic) [EXAMPLE 3726] | 73 | – |
| CCCCC1(CCCC)CS(=O)(=O)c2ccc(N(C)C)cc2C(c2cccc(NC(=S)Nc3ccc(C[n+]4cc(O)cc(Cl)c4)cc3)c2)N1 (racemic) [EXAMPLE 5417] | 26 | – |
| CCCCC1(CCCC)CS(=O)(=O)c2ccc(N(C)C)cc2C(c2cccc(NC(=S)Nc3ccc(C[n+]4ccccc4OCC)cc3)c2)N1 (racemic) [EXAMPLE 5415] | – | 44 |
| CCCCC1(CCCC)CS(=O)(=O)c2ccc(N(C)C)cc2C(c2cccc(NC(=S)Nc3ccc(C[n+]4ccc(C(C)O)cc4)cc3)c2)N1 (racemic) [EXAMPLE 5411] | 97 | – |
| CCC#CC[N+](C)(C)Cc1ccc(NC(=S)Nc2cccc(C3NC(CCCC)(CCCC)CS(=O)(=O)c4ccc(N(C)C)cc43)c2)cc1 (stereo not drawn) [EXAMPLE 3434] | 71 | – |
| CCCCC1(CCCC)CS(=O)(=O)c2ccc(N(C)C)cc2C(c2cccc(NC(=S)Nc3ccc(C[n+]4ccc(C5CCOCC5)cc4)cc3)c2)N1 (stereo not drawn) [EXAMPLE 5419] | 39 | – |
| CCCCC1(CCCC)CS(=O)(=O)c2ccc(N(C)C)cc2C(c2cccc(NC(=S)Nc3ccc(C[N+](C)(CCC)CCC)cc3)c2)N1 (racemic) [EXAMPLE 3426] | 58 | – |
| CCCCC1(CCCC)CS(=O)(=O)c2ccc(N(C)C)cc2C(c2cccc(NC(=S)Nc3ccc(C[n+]4ccc(C(CC)CC)cc4)cc3)c2)N1 (stereo not drawn) [EXAMPLE 3714] | 58 | – |
| CCCCC1(CCCC)CS(=O)(=O)c2ccc(N(C)C)cc2C(c2cccc(NC(=S)Nc3ccc(C[N+]4(C)CCCCC4)cc3)c2)N1 (racemic) [EXAMPLE 3587] | 70 | – |
| CCCCC1(CCCC)CS(=O)(=O)c2ccc(N(C)C)cc2C(c2cccc(NC(=S)Nc3ccc(C[N+](C)(C)CCOC(=O)c4ccccc4)cc3)c2)N1 (stereo not drawn) [EXAMPLE 3558] | 70 | – |
| CCCCCCCCCC[N+](C)(C)Cc1ccc(NC(=S)Nc2cccc(C3NC(CCCC)(CCCC)CS(=O)(=O)c4ccc(N(C)C)cc43)c2)cc1 (stereo not drawn) [EXAMPLE 3414] | 88 | – |
| C#CC[N+](C)(C)Cc1ccc(NC(=S)Nc2cccc(C3NC(CCCC)(CCCC)CS(=O)(=O)c4ccc(N(C)C)cc43)c2)cc1 (stereo not drawn) [EXAMPLE 3433] | 55 | – |

Now from value to compound, other results behind:

| IC50 ([3H]-taurocholate 8 μM uptake) [nM] | Structure (SMILES) | IC50 ([3H]-taurocholate 8 μM) [nM] |
| --- | --- | --- |
| 18 | CCCCC1(CCCC)CS(=O)(=O)c2ccc(N(C)C)cc2C(c2cccc(NC(=S)Nc3ccc(C[n+]4ccc(-c5ccccc5)cc4)cc3Cl)c2)N1 (stereo not drawn) [EXAMPLE P380] | – |
| 30 | CCCCC1(CCCC)CS(=O)(=O)c2ccc(N(C)C)cc2C(c2cccc(NC(=S)Nc3ccc(C[n+]4ccc(C(C)(C)C)cc4)cc3Br)c2)N1 (stereo not drawn) [EXAMPLE P370] | – |
| 45 | CCCCC1(CCCC)CS(=O)(=O)c2ccc(N(C)C)cc2C(c2cccc(NC(=S)Nc3ccc(C[N+]45CCC(CC4)CC5)c(Cl)c3)c2)N1 (stereo not drawn) [EXAMPLE P321] | – |
| 35 | CCCCC1(CCCC)CS(=O)(=O)c2ccc(N(C)C)cc2C(c2cccc(NC(=S)Nc3ccc(C[N+](C)(C)Cc4ccccc4)c(F)c3)c2)N1 (stereo not drawn) [EXAMPLE P331] | – |
| 41 | CCCCC1(CCCC)CS(=O)(=O)c2ccc(N(C)C)cc2C(c2cccc(NC(=S)Nc3ccc(C[N+]45CCC(c6ccccc6)(CC4)CC5)c([N+](=O)[O-])c3)c2)N1 (stereo not drawn) [EXAMPLE P349] | – |
| 62 | CCCCC1(CCCC)CS(=O)(=O)c2ccc(N(C)C)cc2C(c2cccc(NC(=S)Nc3ccc(C[N+]45CCC(CC4)CC5)cc3Br)c2)N1 (stereo not drawn) [EXAMPLE P322] | – |
| 40 | CCCCC1(CCCC)CS(=O)(=O)c2ccc(N(C)C)cc2C(c2cccc(NC(=S)Nc3c(C)cc(C[N+]45CCC(c6ccccc6)(CC4)CC5)cc3C)c2)N1 (stereo not drawn) [EXAMPLE P350] | – |
| 34 | CCCCC1(CCCC)CS(=O)(=O)c2ccc(N(C)C)cc2C(c2cccc(NC(=S)Nc3ccc(C[n+]4ccc(C(C)(C)C)cc4)c(Cl)c3)c2)N1 (stereo not drawn) [EXAMPLE P369] | – |
| 32 | CCCCC1(CCCC)CS(=O)(=O)c2ccc(N(C)C)cc2C(c2cccc(NC(=S)Nc3ccc(C[N+]45CCC(CC4)CC5)c(Br)c3)c2)N1 (stereo not drawn) [EXAMPLE P323] | – |
| 26 | CCCCC1(CCCC)CS(=O)(=O)c2ccc(N(C)C)cc2C(c2cccc(NC(=S)Nc3ccc(C[n+]4ccc(-c5ccccc5)cc4)c(F)c3)c2)N1 (stereo not drawn) [EXAMPLE P379] | – |
| 46 | CCCCC1(CCCC)CS(=O)(=O)c2ccc(N(C)C)cc2C(c2cccc(NC(=S)Nc3ccc(C[N+](C)(C)Cc4ccccc4)cc3Cl)c2)N1 (stereo not drawn) [EXAMPLE P332] | – |
| 37 | CCCCC1(CCCC)CS(=O)(=O)c2ccc(N(C)C)cc2C(c2cccc(NC(=S)Nc3ccc(C[n+]4ccc(-c5ccccc5)cc4)cc3C)c2)N1 (stereo not drawn) [EXAMPLE P376] | – |
| 56 | CCCCC1(CCCC)CS(=O)(=O)c2ccc(N(C)C)cc2C(c2cccc(NC(=S)Nc3ccc(C[n+]4ccc(-c5ccccc5)cc4)c([N+](=O)[O-])c3)c2)N1 (stereo not drawn) [EXAMPLE P385] | – |
| 33 | CCCCC1(CCCC)CS(=O)(=O)c2ccc(N(C)C)cc2C(c2cccc(NC(=S)Nc3c(C)cc(C[n+]4ccc(C(C)(C)C)cc4)cc3C)c2)N1 (stereo not drawn) [EXAMPLE P374] | – |
| 32 | CCCCC1(CCCC)CS(=O)(=O)c2ccc(N(C)C)cc2C(c2cccc(NC(=S)Nc3ccc(C[N+](C)(C)Cc4ccccc4)cc3F)c2)N1 (stereo not drawn) [EXAMPLE P330] | – |
| 48 | CCCCC1(CCCC)CS(=O)(=O)c2ccc(N(C)C)cc2C(c2cccc(NC(=S)Nc3ccc(C[n+]4ccc(C(C)(C)C)cc4)cc3C)c2)N1 (stereo not drawn) [EXAMPLE P364] | – |
